In patent publication US9587220B2, “Method for inducing cardiac differentiation of pluripotent stem cell” (Kyoto University, priority 2012, dated 2017):
“Also recorded” adds a separate entry of the source. Where two headings read alike, the source gives them in different places.

Key:
[1] = system: KY02111-induced cardiomyocytes (KY-CMs); settings: depolarizing pulses -40 to +40 mV for 500 msec
Protocol: Cells were isolated from beating hPSC-derived cardiomyocytes, using protease solution. The dissociated cells were cultured for 3-7 d on gelatin-coated cover glasses. Patch-clamp recordings were performed in a temperature-controlled room at approximately 25° C. Data from the whole cell patch-clamp configuration were recorded from spontaneously beating cells, using a HEKA EPC10 amplifier (HEKA Instruments Inc.). An external solution containing 140 mM NaCl, 5 mM KCl, 10 mM HEPES, 2 mM CaCl2, 1 mM MgCl2, and 10 mM glucose was adjusted to pH 7.2 with NaOH. A pipette solution containing 80 mM K-aspartate, 50 mM KCl, 1 mM MgCl2, 10 mM EGTA, 3 mM ATP-Mg, and 10 mM HEPES was adjusted to pH 7.2 with KOH. […] The inhibitors were obtained from Sigma-Aldrich. […] The current-voltage relationship was obtained by holding the membrane potential at −40 to −60 mV, and delivering a depolarizing pulse for 500 ms in a stepwise manner, in increments from −60 to 60 mV for INa, −40 to 40 mV for ICaL, −40 to 40 mV for IKs and IKr, and −50 to −140 mV for Ih.

[2] = system: WNT target genes in IMR90-1 hiPSCs; experiment: Microarray and qPCR gene expression of WNT target genes; type: cell-based, human; settings: 12, 24 and 72 h after treatment
Protocol: IMR90-1 iPSCs were cultured in cardiac differentiation medium containing serum. On Day 3, cells were treated with 10 μM KY02111 or 0.1% DMSO for 0, 12, or 24 h. Non-treated cells (0 h), cells treated with KY02111 for 12 h (KY12hr) or 24 h (KY24hr), and cells treated with 0.1% DMSO for 12 h (DMSO12hr) or 24 h (DMSO24hr) were used for microarray analysis. Total RNA was prepared using the RNeasy Mini Kit (Qiagen), according to the manufacturer's instructions. Synthesis of cDNA, in vitro transcription and biotin labeling cRNA, and hybridization to the Human Gene 1.0 ST array (Affymetrix) were performed according to Affymetrix protocols. Hybridized arrays were scanned using an Affymetrix GeneChip Scanner. Data normalization and further analysis were performed with GeneSpring GX (Agilent Technologies). Proportions of treated cells expressing genes relative to control (KY02111/DMSO) were calculated for each time point. […] The microarray data have been submitted to the Gene Expression Omnibus (GEO) public database at NCBI (GEO accession number, GSE33622).
Total RNA was isolated with an RNeasy Mini Kit (QIAGEN). Genomic DNA was completely digested with DNase I (Invitrogen). Total RNA (0.5 μg) was subjected to cDNA synthesis using the SuperScript III Reverse Transcriptase (Invitrogen). qRT-PCR was performed in triplicate, using SYBER GREEN PCR Master Mix on a 7500 Real Time PCR System (Applied Biosystems). The cycling conditions were as follows: 10 min at 95° C.; 40 cycles, each consisting of 15 s at 95° C.; 1 min at 60° C. Total RNA from human adult heart tissue (BioChain) was used to evaluate the expression levels of cardiac marker genes for cardiomyocytes derived from hPSCs. All values were normalized with respect to GAPDH expression level and expressed relative to the corresponding values in human adult hearts (100%).

[3] = system: human αMHC promoter-driven EGFP transgenic monkey ESCs; experiment: αMHC promoter-driven GFP expression, cardiac differentiation of transgenic monkey ESCs (HCA); type: cell-based; settings: for intensity of the GFP signal driven by αMHC promoter: comparison of chemical and proteinaceous WNT inhibitors, FIG. 3b,c
Description: To generate human αMHC promoter-driven EGFP-expressing monkey ESCs, the 918 bp upstream from the transcriptional starting site and the third exon just before the open reading frame were amplified from genomic DNAs of KhES-1 hESCs by PCR, using the following primer sets —forward primer, 5′- […]-3′ (SEQ ID No: 37); reverse primer, 5′- (including a SalI linker) 22 […]-3′ (SEQ ID No: 38)—and then ligated into pGEM-T Easy Vector (Promega). The HindIII/SalI fragment from the cloning vector was connected with pEGFP-1 (Clontech). The linearized αMHC-EFGP vector was introduced into CMK6.4 monkey ESCs by electroporation. Transgenic ESC clones were selectively grown with G418 (Sigma-Aldrich). The expression of EGEP was confirmed in beating colonies.
The confluent (4-5 d after passage) αMHC-GFP transgenic monkey ESCs were dissociated enzymatically by CTK solution (Non-patent literature 1), and the ESC clumps (40-100 μm in diameter) were obtained using 40 and 100 μm Cell Strainers (BD Biosciences). The ESC clumps (approximately 5.0×10^3 cells well^−1) were transferred onto 96-well plates (Greiner Bio-One, 96-well black plate, Cat. No. 655090) and incubated in cardiac differentiation medium as described in (4) below. During Days 6-14 of cardiac differentiation, 9600 compounds from the chemical library (dissolved in DMSO) were screened using 96-well plates. Sixteen and 80 wells were used for the control (0.1% DMSO) and chemical compounds (1 per well), respectively. Final concentration of the each compound was approximately 1-5 μM. Medium containing small molecules was changed every 4 d. On Day 14, GFP fluorescence of ESCs was measured by whole-plate scanning, using the Metamorph imaging system (Molecular Device). Metamorph software was used to analyze the GFP fluorescence data and calculate Fluorescence Area, Total Fluorescence Intensity, Average Fluorescence Intensity, and number of GFP-positive colonies for each well. Hit compounds were determined by the following criteria: Average Fluorescence Intensity of a well with the compound was >6 SD greater than Average Fluorescence Intensity of the control (mean of 16 wells), and Total Fluorescence Intensity for the compound was >0 SD greater than the control; or Total Fluorescence Intensity of the compound was >4 SD greater than the control, and Average Fluorescence Intensity of the compound was >0 SD greater than the control. One hundred and twenty compounds passed these criteria and were retested using 8 wells for each compound.
Confluent hESCs and hiPSCs were gently detached with CTK solution and transferred into Petri dishes (BD Biosciences) with Primate ES Cell Culture Medium (ReproCELL, Japan). Cells were held in suspension culture for 8-24 h to form aggregates. The sizes of hPSC aggregates (0.3-1 mm in diameter) are important for efficient differentiation. Following suspension culture, cell aggregates were attached to culture dishes (3-10×10^5 cells cm^−2) in cardiac differentiation medium: IMDM (Sigma), containing 20% FBS (Gibco), 1% MEM non-essential amino acid solution (Sigma), 1% Penicillin-Streptomycin (Gibco), 2 mM L-glutamine (Sigma), 0.001% 2-Mercaptoethanol (Gibco), and 0.005N NaOH, with 10 ng ml^−1 BMP4 (R&D Systems). The medium was changed to cardiac differentiation medium with 10 μM KY02111 and/or other WNT inhibitors added on Day 3 (hiPSC lines) or Day 4 (human or monkey ESC lines); XAV939 (Wako, Japan), IWP-2 (Santa Cruz Biotechnology), IWR-1 (Merck4Bioscience), IGFBP4 (R&D Systems), Dkk1 (R&D Systems) and the mixture of bFGF (R&D Systems), BMP4 (R&D Systems), VEGF (R&D Systems), DKK1 (R&D Systems), and Activin A (R&D Systems) (Non-patent literature 16). Medium was changed every 2-3 d. KY02111 and other WNT inhibitors were added until Day 9 for hiPSC lines and the monkey ESC line, or Day 14 for hESC lines. […]

[4] = system: human αMHC promoter-driven EGFP transgenic monkey ESCs; experiment: as above; type: cell-based
KY-CM colony = experiment: QT interval prolongation assay on microelectrode array; type: cell-based, human; settings: astemizole 300 pM to 30 μM, increased every 4 min
Protocol: Microelectrode array (MEA) dishes (Multi Channel Systems, Reutlingen, Germany) were coated with ReproCoat (RCESD006, ReproCELL, Japan) in 5% CO2 for 1 h at 37° C. After coating, KY02111-induced cardiomyocytes at Day 30 were transferred into 1 ml of Cardiomyocyte Culture Medium (RCESD006, ReproCELL, Japan) on the MAE dish. Using a pipet tip or glass bar, the cardiomyocytes were gently moved onto the electrode and cultured overnight to attach to the MEA dishes. On the following day, the medium was changed into Cardiomyocyte Test Medium (RCESD003, ReproCELL, Japan). After confirming the presence of beating cardiomyocytes, the MEA dishes were attached to an MEA amplifier (Multi Channel Systems, Reutlingen, Germany), and electrocardiogram-like waves were recorded. After 2 min of recording, 300 pM astemizole (Sigma) or 0.1% DMSO were added, and the concentrations of astemizole (300 pM to 30 μM) were increased every 4 min. ECG-like waves were recorded after 2 min of each astemizole treatment. Beating rate, Na^+ amplitude, K^+ amplitude, and Na^+—K^+ interval were analyzed by LabChart™ software v7 (ADInstruments, Adelaide, Australia).

Q: Which results are given for `CCS(=O)(=O)N(C)[C@H]1c2cc(C#N)ccc2OC(C)(C)[C@@H]1O` [chromanol293B]?
A: KCNQ1 current (IKs) [1]: clearly detected; KCNQ1 current (IKs) ([1]; listed as Chromanol293B): suppressed

Q: With `O=C1Nc2cc(Br)ccc2/C1=C1/Nc2ccccc2/C1=N\O` [BIO] as the molecule, how does the “expression levels of WNT target genes by qPCR” value [2] read?
A: The value was “tended to augment”.

Q: `COc1ccc2nc(NC(=O)Cc3ccc(OC)c(OC)c3)sc2c1` [N11474] was tested. Which “GFP fluorescence of ESCs compared to DMSO” value ([3]; chemical screening, treatment Days 6-14, P=0.015) did it give?
A: The value was “significantly increased; also recorded: significantly enhanced”.

Q: And the “αMHC promoter-driven EGFP signal on Day 14” value ([4]; treatment after Day 8 (Days 8-12 or Days 10-14))?
A: Its value is “less effective”.

Q: What about the “αMHC promoter-driven EGFP signal on Day 14” value ([4]; treatment on Days 0-4) of the same molecule?
A: Its value is “completely repressed GFP expression; also recorded: completely suppressed GFP expression”.

Q: What about the “αMHC promoter-driven EGFP signal on Day 14” value ([4]; treatment on Days 4-8) of the same molecule?
A: The value was “maximized the increase in GFP expression; also recorded: most effective”.

Q: What about the “αMHC promoter-driven EGFP signal on Day 14” value ([4]; treatment on Days 6-10) of the same molecule?
A: Its value is “similarly effective to the screening protocol”.

Q: How did the “GFP expression level induced by N11474 and related compounds (structure-activity)” value ([3]; DMSO=100%) turn out when `COc1ccc(CCCC(=O)Nc2nc3ccc(Cl)cc3s2)cc1OC` [KY02114, 2-(4-(3,4-dimethoxyphenyl)butanamide)-6-chlorobenzothiazole] was run?
A: Its value is “induced the highest levels”.

Q: `COc1ccc(CCN2CCC(Nc3nc4ccccc4n3Cc3ccc(F)cc3)CC2)cc1` [astemizole] was tested. Which “Na+-K+ interval of ECG-like waves” value (KY-CM colony) did it give?
A: Its value is “prolonged”.

Q: `O=C(Nc1cccc2cccnc12)c1ccc(N2C(=O)[C@@H]3[C@H](C2=O)[C@@H]2C=C[C@H]3C2)cc1` [IWR-1, reference compound] was tested. Which “intensity of the GFP signal driven by αMHC promoter” value (“intensity of the GFP signal driven” below) [3] did it give?
A: Its value is “increased”.

B1: IGFBP4: proteinaceous WNT inhibitor (protein, UniProt P22692 22-258, looked up)
Insulin-like growth …: DEAIHCPPCSEEKLARCRPPVGCEELVREPGCGCCATCALGLGMPCGVYTPRCGSGLRCYPPRGVEKPLHTLMHGQGVCMELAEIEAIQESLQPSDKDEGDHPNNSFSPCSAHDRRCLQKHFAKIRDRSTSGGKMKVNGAPREDARPVPQGSCQSELHRALERLAASQSRTHEDLYIIPIPNCDRNGNFHPKQCHPALDGQRGKCWCVDRKTGVKLPGGLEPKGELDCHQLADSFRE
Q: For B1, which “intensity of the GFP signal driven” value [3] is on record?
A: Its value is “increased”.

B2: DKK1: proteinaceous WNT inhibitor (protein, UniProt O94907 32-266, looked up)
Dickkopf-related protein 1: TLNSVLNSNAIKNLPPPLGGAAGHPGSAVSAAPGILYPGGNKYQTIDNYQPYPCAEDEECGTDEYCASPTRGGDAGVQICLACRKRRKRCMRHAMCCPGNYCKNGICVSSDQNHFRGEIEETITESFGNDHSTLDGYSRRTTLSSKMYHTKGQEGSVCLRSSDCASGLCCARHFWSKICKPVLKEGQVCTKHRRKGSHGLEIFQRCYCGEGLSCRIQKDHHQASNSSRLHTCQRH
Q: With B2 as the molecule, how does the “intensity of the GFP signal driven” value [3] read?
A: The value was “increased”.
